Measured values taken from patent publication US4510307A, “6-Quinazolinesulfonyl derivatives and process for preparation thereof” (Asahi Kasei Kogyo Kabushiki Kaisha, priority 1980, dated 1985).
Where two headings read alike, the source gives them in different places.

Columns and labels:
[1] = system: hog cerebral cortex calmodulin or calcium-dependent cyclic nucleotide PDE; assay: PDE inhibition, calmodulin or calcium-dependent cyclic nucleotide PDE of hog cerebral cortex; type: biochemical
From the text: (§1) More specifically, from the results of the experiment using an enzyme specimen in accordance with the reports [Mol. Pharmacol., 15, 49 (1979) and Biochem. Biophys. […] The 6-quinazolinesulfonyl derivatives and the pharmaceutically acceptable acid addition salts have inhibited the decomposition due to the enzyme specimens of substrate c-AMP and guanosine-3',5'-monophosphate (abbreviated "c-GMP"). This means that the compounds of this invention can inhibit the decomposition of the c-AMP and maintain the c-AMP in tissue at a high concentration. In other words, the compounds of this invention are effective for the improvement and medical treatment of a disease accompanied by reduction in the c-AMP and a disease accompanied by infiltration of calcium into tissue, for example, the contraction and convulsion of vascular smooth muscle.
(§2) As the enzyme specimens, human blood platelet and hog cerebral cortex were partially purified in accordance with reports [Mol. Pharmacol., 15, 49 (1979) and Biochem. Biophys. Res. Comun., 84, 277 (1978)]. The effect of the 6-quinazolinesulfonyl derivatives and their pharmaceutically acceptable acid addition salts of this invention on the c-AMP-decomposing PDE and the calmodulin or calcium-dependent cyclic nucleotide PDE was examined under the conditions in accordance with the above described reports. […] The activity of the compounds of this invention is expressed by the concentration which is required to inhibit 50% of the decomposition of the c-AMP-decomposing PDE, i.e., I50 by μM.
*^2 The enzyme activity was measured by using calmodulin and Ca^+
dependent specimens. The nonactivation was measured in the presence of
0.2 mM of EGTA, while the activation was measured in the presence of 0.2
mM of CaCl2 and 8 units of calmodulin.

vertebral artery = assay: Effect on blood flow volume of vertebral artery of dog; type: in vivo, dog of mixed breed; conditions: Canis lupus familiaris; 1 mg/Kg intravenous; anesthetized dog; read-out: Increased Blood Flow Volume in Vertebral Artery
Protocol: (§3) The effect of the 6-quinazolinesulfonyl derivatives and the pharmaceutically acceptable acid addition salts of this invention on the vasodilation of the femoral and vertebral arteries can be measured by anesthetizing a dog of mixed breed weighing 8 to 15 Kg by an intravenous administration of 35 mg/Kg of pentbarbital, providing an acute type probe (a product of Nippon Koden K.K., Japan) with the femoral and vertebral arteries, administering the 6-quinazolinesulfonyl derivatives and the pharmaceutically acceptable acid addition salts to the femoral vein through a polyethylene tube inserted into the femoral vein side chain and measuring the blood flow volume with an electromagnetic flowmeter (a product of Nippon Koden K.K., Japan, "MF-27"). For example, when 1 mg/Kg of 1-[4-(N-methyl-N-cyclohexylamino)-6-quinazolinesulfonyl]-4-(2-ethoxy-2- phenylethyl)piperazine was intravenously administered, the increased blood flow volume in the femoral artery was 33% and the increased blood flow volume in the vertebral artery was 59%.
(§4) The effect on the vasodilatation of the femoral and vertebral arteries was measured by anesthetizing a dog of mixed breed weighing 8 to 15 Kg by an intravenous administration of 35 mg/Kg of pentbarbital, providing an acute type probe (a product of Nippon Koden K.K., Japan) with the femoral and vertebral arteries, administering the 6-quinazolinesulfonyl derivatives and their pharmaceutically acceptable acid addition salts to the femoral vein through a polyethylene tube inserted into the femoral vein side chain and measuring the blood flow volume with an electromagnetic blood flowmeter (a product of Nippon Koden K.K., Japan, "MF-27").

[2] = Acute toxicity, intravenous administration in mice; conditions: mouse, in vivo, male ddY-strain mice
Protocol: Furthermore, when the 6-quinazolinesulfonyl derivatives and the pharmaceutically acceptable acid addition salts of this invention are intravenously and arterially administered for the above described purposes, any remarkable toxicity cannot be observed.
The acute toxicity of the 6-quinazolinesulfonyl derivatives and their pharmaceutically acceptable acid addition salts was measured by giving male ddY-strain mice an intravenous administration.

femoral artery = assay: Effect on blood flow volume of femoral artery of dog; type: in vivo, dog of mixed breed; conditions: Canis lupus familiaris; 1 mg/Kg intravenous; anesthetized dog; read-out: Increased Blood Flow Volume in Femoral Artery
Protocol: as §3, §4

mesenteric artery = assay: Relaxation of Mesenteric Artery (isolated rabbit mesenteric artery contracted with KCl); conditions: Oryctolagus cuniculus, concentration for 50% relaxation, KCl 15~20 mM contraction, read-out: Relaxation of Mesenteric Artery ED50
Protocol: When, for example, 1-[4-(N-methyl-N-cyclohexylamino)-6-quinazolinesulfonyl]-4-(2-ethoxy-2-phenylethyl)piperazine was added and a complete relaxation was designated 100%, the concentration which could bring about a relaxation of 50%, i.e., ED50 was 0.8 μM.
After a home bred rabbit of a Japanese species weighing about 3 Kg was subjected to bloodletting, resulting in death and then to abdominal incision, the mesenteric artery was taken out, cut into helicoids of 2 mm×25 mm and suspended in a 20 ml organ bath filled with a Krebs-Henseleit solution into which a mixed gas of 95% by volume of O2 and 5% by volume of CO2 was introduced and one end of the artery was connected with an isometric transducer. When a load of 1.5 g was applied to the artery, the contraction and the relaxation of the artery was recorded as a weight on the transducer (a product of Nippon Koden K.K., Japan, "FD Pickup TB-912T"). The relaxation of the mesenteric artery was observed by adding the 6-quinazolinesulfonyl derivatives and their pharmaceutically acceptable acid addition salts to the mesenteric artery at the condition of about one half of the maxinum contraction with KCl at a KCl concentrantion of 15~20 mM. When the complete relaxation of the mesenteric artery was designated 100%, the concentration of the 6-quinazolinesulfonyl derivatives and their pharmaceutically acceptable acid addition salts which brought about a relaxation of 50% is shown in Table 6.

[3] = system: human blood platelet cAMP PDE; assay: PDE inhibition, c-AMP-decomposing PDE of human blood platelet; type: biochemical; conditions: human blood platelet cAMP PDE specimen; read-out: PDE Inhibition I50, Human Blood Platelet (PII)
From the text: as §1, §2
*^1 The human blood platelet cAMP PDE specimen was employed.

[4] = activated: 0.2 mM CaCl2 and 8 units of calmodulin, read-out: PDE Inhibition I50, Hog Cerebral Cortex (PII), Activated
[5] = non-activated: presence of 0.2 mM EGTA
[6] = non-activated: presence of 0.2 mM EGTA, read-out: PDE Inhibition I50, Hog Cerebral Cortex (PII), Non-activated

CCCCN(CCCC)c1ncnc2ccc(S(=O)(=O)N3CCN(CC(OCC)c4ccccc4)CC3)cc12 (stereo not drawn) [Compound (4), 1-(4-dibutylamino-6-quinazolinesulfonyl)-4-(2-ethoxy-2-phenylethyl)-piperazine]
IC50 [1, 4]: 370 µM | PDE Inhibition I50, Hog Cerebral Cortex (PII), Non-activated [1, 5]: not inhibited | change in vivo at 1 mg/kg (vertebral artery): 50% | LD50 [2]: 135 mg/kg | change in vivo at 1 mg/kg (femoral artery): 33% | EC50 (mesenteric artery): 1.3 µM | IC50 [3]: 950 µM

CCOC(CN1CCN(S(=O)(=O)c2ccc3ncnc(N(C)c4ccccc4)c3c2)CC1)c1ccccc1 (stereo not drawn) [Compound (23), 1-[4-(N-methylanilino)-6-quinazolinesulfonyl]-4-(2-ethoxy-2-phenylethyl)-piperazine]
IC50 [1, 4]: 11 µM | IC50 [1, 6]: 24 µM | change in vivo at 1 mg/kg (vertebral artery): 38% | LD50 [2]: 98 mg/kg | change in vivo at 1 mg/kg (femoral artery): 25% | EC50 (mesenteric artery): 2.2 µM | IC50 [3]: 900 µM

CCOC(CN1CCN(S(=O)(=O)c2ccc3ncnc(N(C)C4CCCCC4)c3c2)CC1)c1ccccc1 (stereo not drawn) [Compound (19), 1-[4-(N-methyl-N-cyclohexylamino)-6-quinazolinesulfonyl]-4-(2-ethoxy-2-phenylethyl)piperazine]
IC50 [1, 4]: 4 µM | IC50 [1, 6]: 4 µM | change in vivo at 1 mg/kg (vertebral artery): 59% | LD50 [2]: 63 mg/kg | change in vivo at 1 mg/kg (femoral artery): 33% | EC50 (mesenteric artery): 0.8 µM | IC50 [3]: 750 µM

CCOC(CN1CCN(S(=O)(=O)c2ccc3ncnc(N4CCCCC4)c3c2)CC1)c1ccccc1 (stereo not drawn) [Compound (6), 1-(4-piperidino-6-quinazolinesulfonyl)-4-(2-ethoxy-2-phenylethyl)-piperazine]
IC50 [1, 4]: 31 µM | IC50 [1, 6]: 15 µM | change in vivo at 1 mg/kg (vertebral artery): 51% | LD50 [2]: 108 mg/kg | change in vivo at 1 mg/kg (femoral artery): 31% | EC50 (mesenteric artery): 1.7 µM | IC50 [3]: 850 µM

NCCCCNS(=O)(=O)c1ccc2ncnc(N3CCCCC3)c2c1 [Compound (31), N-(4-aminobutyl)-4-piperidino-6-quinazolinesulfonamide]
IC50 [1, 4]: 75 µM | IC50 [1, 6]: 88 µM | change in vivo at 1 mg/kg (vertebral artery): 48% | LD50 [2]: 45 mg/kg | change in vivo at 1 mg/kg (femoral artery): 28% | EC50 (mesenteric artery): 21 µM | IC50 [3]: 300 µM

CCCCN(CCCC)c1ncnc2ccc(S(=O)(=O)NCCCCN)cc12 [Compound (37), N-(4-aminobutyl)-4-dibutylamino-6-quinazolinesulfonamide]
IC50 [1, 4]: 44 µM | IC50 [1, 6]: 109 µM | change in vivo at 1 mg/kg (vertebral artery): 41% | LD50 [2]: 103 mg/kg | change in vivo at 1 mg/kg (femoral artery): 24% | EC50 (mesenteric artery): 8 µM | IC50 [3]: 250 µM

CCOC(CN1CCN(S(=O)(=O)c2ccc3ncnc(N(C)Cc4ccccc4)c3c2)CC1)c1ccccc1 (stereo not drawn) [Compound (25), 1-[4-(N-methyl-N-benzylamino)-6-quinazolinesulfonyl]-4-(2-ethoxy-2-phenylethyl)piperazine]
IC50 [1, 4]: 7 µM | IC50 [1, 6]: 7 µM | change in vivo at 1 mg/kg (vertebral artery): 48% | LD50 [2]: 72 mg/kg | change in vivo at 1 mg/kg (femoral artery): 36% | EC50 (mesenteric artery): 0.8 µM | IC50 [3]: 850 µM

O=S(=O)(c1ccc2ncnc(N3CCCCC3)c2c1)N1CCN(CC=Cc2ccccc2)CC1 [Compound (9), 1-(4-piperidino-6-quinazolinesulfonyl)-4-cinnamylpiperazine]
IC50 [1, 4]: 20 µM | PDE Inhibition I50, Hog Cerebral Cortex (PII), Non-activated [1, 5]: not inhibited | change in vivo at 1 mg/kg (vertebral artery): 42% | LD50 [2]: 133 mg/kg | change in vivo at 1 mg/kg (femoral artery): 24% | EC50 (mesenteric artery): 3 µM | IC50 [3]: 700 µM

CCOC(CN1CCN(S(=O)(=O)c2ccc3ncnc(N(CC(C)C)C4CCCCC4)c3c2)CC1)c1ccccc1 (stereo not drawn) [Compound (22), 1-[4-(N-isobutyl-N-cyclohexylamino)-6-quinazolinesulfonyl]-4-(2-ethoxy-2-phenylethyl)piperazine]
EC50 (mesenteric artery): 2.5 µM

NCCCCCCNS(=O)(=O)c1ccc2ncnc(N3CCCCC3)c2c1 [Compound (32), N-(6-aminohexyl)-4-piperidino-6-quinazolinesulfonamide]
IC50 [1, 4]: 111 µM | IC50 [1, 6]: 94 µM | change in vivo at 1 mg/kg (vertebral artery): 36% | LD50 [2]: 95 mg/kg | change in vivo at 1 mg/kg (femoral artery): 21% | EC50 (mesenteric artery): 24 µM | IC50 [3]: 520 µM

CCOC(CN1CCN(S(=O)(=O)c2ccc3ncnc(NCc4ccccc4)c3c2)CC1)c1ccccc1 (stereo not drawn) [Compound (17), 1-(4-benzylamino-6-quinazolinesulfonyl)-4-(2-ethoxy-2-phenylethyl)-4-(2-ethoxy-2-phenylethyl)piperazine]
EC50 (mesenteric artery): 3.2 µM

CCOC(CN1CCN(S(=O)(=O)c2ccc3ncnc(N)c3c2)CC1)c1ccccc1 (stereo not drawn) [Compound (1), 1-(4-amino-6-quinazolinesulfonyl)-4-(2-ethoxy-2-phenylethyl)piperazine]
EC50 (mesenteric artery): 9.8 µM

CCOC(CN1CCN(S(=O)(=O)c2ccc3ncnc(N4CCOCC4)c3c2)CC1)c1ccccc1 (stereo not drawn) [Compound (14), 1-(4-morpholino-6-quinazolinesulfonyl)-4-(2-ethoxy-2-phenylethyl)-piperazine]
EC50 (mesenteric artery): 9.5 µM

CCOC(CN1CCN(S(=O)(=O)c2ccc3ncnc(NC4CCCCC4)c3c2)CC1)c1ccccc1 (stereo not drawn) [Compound (15), 1-(4-cyclohexylamino-6-quinazolinesulfonyl)-4-(2-ethoxy-2-phenylethyl)-piperazine]
EC50 (mesenteric artery): 1.6 µM

CCOC(CN1CCN(S(=O)(=O)c2ccc3ncnc(N(CC)CC)c3c2)CC1)c1ccccc1 (stereo not drawn) [Compound (3), 1-(4-diethylamino-6-quinazolinesulfonyl)-4-(2-ethoxy-2-phenylethyl)-piperazine]
EC50 (mesenteric artery): 5 µM
